Where a name gives a salt, the structure may show the parent alone. Read-outs that look alike come from different tables or passages of the source.
How the values were obtained:
[1] = test system: choline oxidase derived from B. album KY 4319; assay: Substrate specificity of choline oxidase; format: biochemical, Brevibacterium album; conditions: enzyme 1.5 U/ml; activity on choline chloride defined as 100
Description: (§1) The activity of choline oxidase in the experimental examples and the following examples is determined by oxidizing choline with choline oxidase to produce hydrogen peroxide, decomposing hydrogen peroxide with peroxidase in the presence of phenol and 4-aminoantipyrine to produce the pigment, and measuring the absorbancy of the pigment solution as described below.
(§2) Choline oxidase is dissolved in 0.05 mol/L Tris buffer having a pH of 8.0 to make up a specific concentration (1.5 and 0.4 U/ml respectively in case of choline oxidase derived from KY 4319 and KY 3505 strains). The solutions are then subjected to the same determination of choline oxidase as described above except that the various substances other than choline chloride shown in Table 3 are used as a substrate. The relative activities on the various substrates are calculated by defining the activity on choline chloride as 100.

[2] = test system: choline oxidase derived from C. murisepticum KY 3505; assay: Substrate specificity of choline oxidase; format: biochemical, Corynebacterium murisepticum; conditions: enzyme 0.4 U/ml; activity on choline chloride defined as 100
Description: as §1, §2

[3] = test system: choline oxidase derived from Brevibacterium album KY 4319; conditions: for oxygen consumed per 1 mol of substrate (concluded stoichiometry): conclusion from Table 3; for Amount of O2 uptake [B]: 37° C., pH 8.0
Description: (§3) In the following Experiment (1) and (2), choline oxidase, derived from Brevibacterium album KY 4319 is used.
Then, 0.5 ml of 0.05 mol/L Tris buffer (pH 8.0) containing 1.5 U/ml of choline oxidase is put in the side arm, and reaction is carried out at 37° C. During the reaction, the amount of oxygen uptake (volume) is measured at regular intervals of time. The reaction is completed in 30-40 minutes.

[4] = test system: choline oxidase derived from Brevibacterium album KY 4319; conditions: for hydrogen peroxide produced from 1 mol of substrate (concluded stoichiometry): conclusion from Table 4; for Amount of hydrogen peroxide [B']: 37° C., 20 minutes, pH 8.0
Description: as §3
In this experiment, 0.05 mol/L Tris buffer (pH 8.0) containing 0.001 mol/L of 4-aminoantripyrine, 0.001 mol/L of phenol and 50 mg/L of peroxidase is used as a color-forming liquid. […] The absorbancy of the reaction mixture is measured at 500 nm. The amount of hydrogen peroxide produced is calculated based on the measured value. The ratio of the amount of the hydrogen peroxide produced (μmol) to the amount of the charged substrate (μmol) is shown in Table 4.

[5] = test system: Corynebacterium murisepticum KY 3505
Description: as §1
In this experimental example, Brevibacterium album KY 4319 and Corynebacterium murisepticum KY 3505 are used. 10 ml portions of a nutrient medium having the following composition are poured into 70 ml-test tubes and sterilized at 120° C. for 15 minutes.
One loopful of the above strains are separately inoculated into the medium in the test tubes, and culturing is carried out with shaking at 30° C. for […].
After the completion of culturing, each of the culture liquors is subjected to centrifugation. The resultant microbial cells are suspended in 10 ml of 0.05 mol/L Tris buffer having a pH of 8.0 and disrupted by ultrasonic generator. The resultant mixture is subjected to centrifugation and choline oxidase activity of the supernatant is measured.

[6] = test system: Brevibacterium album KY 4319
Description: A 0.05 mol/L Tris buffer solution (pH 8.0) containing 0.01 mol/L of 4-aminoantipyrine, 0.01 mol/L of phenol and 5000 U/L of peroxidase is prepared and used as color-forming liquid. […] Reaction is carried out at 37° C. for 20 minutes and then the absorbancy of the solution is measured at 500 nm. The amount of the reacted choline chloride is calculated based on the measured value. The enzyme activity is expressed by "U" which is defined as the amount of enzyme which will decompose 1 μmole of choline in 1 minute under the above-described conditions.

[7] = test system: choline oxidase derived from B. album KY 4319
Description: An approximately 4 ml-reactor for measurement of oxygen absorption is kept at 37° C. and an oxygen electrode is inserted therein. Choline oxidase is dissolved in 0.05 mol/L Tris buffer having a pH of 8.0 to make up a concentration of 0.8 U/ml. […] The concentration of oxygen dissolved in the solution is recorded continuously by recorder while stirring the solution. Decrease in oxygen concentration for 5 minutes after the start of the reaction is calculated.
The same procedure as above is repeated except that sodium azide is not added (control).

[8] = choline chloride 0.5 g/dl (36 mmol/L) in medium
[9] = choline chloride 1.0 g/dl (72 mmol/L) in medium
[10] = choline chloride 5.0 g/dl (360 mmol/L) in medium
[11] = choline chloride 10.0 g/dl (720 mmol/L) in medium

CN(C)CCO [2-dimethylaminoethanol, 2-dimethyl-aminoethanol]
Substrate specificity (relative activity %) [1]: 7.3%
Substrate specificity (relative activity %) [2]: 8.5%

CNCCO [2-methylaminoethanol, 2-methyl-aminoethanol]
Substrate specificity (relative activity %) [1]: 1.0%
Substrate specificity (relative activity %) [2]: 0%

CC(=O)OCC[N+](C)(C)C.[Cl-] [acetylcholine chloride]
Substrate specificity (relative activity %) [1]: 0%
Substrate specificity (relative activity %) [2]: 0%

C[N+](C)(C)CC=O [betaine aldehyde]
oxygen consumed per 1 mol of substrate (concluded stoichiometry) [3]: 1 mol
[B]/[A] (O2 uptake / charged substrate) ([3]; substrate 1.25 μmol): 0.88
Amount of O2 uptake [B] ([3]; substrate 1.25 μmol): 1.10 µmol
[B]/[A] (O2 uptake / charged substrate) ([3]; substrate 2.50 μmol): 0.92
Amount of O2 uptake [B] ([3]; substrate 2.50 μmol): 2.31 µmol
[B]/[A] (O2 uptake / charged substrate) ([3]; substrate 5.00 μmol): 0.93
Amount of O2 uptake [B] ([3]; substrate 5.00 μmol): 4.67 µmol
hydrogen peroxide produced from 1 mol of substrate (concluded stoichiometry) [4]: 1 mol
[B']/[A'] (hydrogen peroxide produced / charged substrate) ([4]; substrate 0.045 μmol): 0.78
Amount of hydrogen peroxide [B'] ([4]; substrate 0.045 μmol): 0.035 µmol
[B']/[A'] (hydrogen peroxide produced / charged substrate) ([4]; substrate 0.090 μmol): 0.93
Amount of hydrogen peroxide [B'] ([4]; substrate 0.090 μmol): 0.084 µmol
[B']/[A'] (hydrogen peroxide produced / charged substrate) ([4]; substrate 0.180 μmol): 0.93
Amount of hydrogen peroxide [B'] ([4]; substrate 0.180 μmol): 0.168 µmol

C[N+](C)(C)CC(=O)O [betaine]
Substrate specificity (relative activity %) [1]: 0%
Substrate specificity (relative activity %) [2]: 0%

C[N+](C)(C)CCO.[Cl-] [choline chloride]
Activity of choline oxidase ([5]; choline chloride 0.1 g/dl (7.2 mmol/L) in medium): 6.4 U/dl
Activity of choline oxidase [5, 8]: 9.3 U/dl
Activity of choline oxidase [5, 9]: 17.1 U/dl
Activity of choline oxidase ([5]; choline chloride 2.0 g/dl (144 mmol/L) in medium): 17.5 U/dl
Activity of choline oxidase [5, 10]: 12.8 U/dl
Activity of choline oxidase [5, 11]: 6.7 U/dl
Substrate specificity (relative activity %) [1]: 100%
Substrate specificity (relative activity %) [2]: 100%
Activity of choline oxidase ([6]; choline chloride 0.1 g/dl (7.2 mmol/L) in medium, 30° C. culture, supernatant of disrupted cells): 13.0 U/dl
Activity of choline oxidase [6, 8]: 35.4 U/dl
Activity of choline oxidase [6, 9]: 32.7 U/dl
Activity of choline oxidase [6, 10]: 23.4 U/dl
Activity of choline oxidase [6, 11]: 15.1 U/dl
oxygen consumed per 1 mol of substrate (concluded stoichiometry) [3]: 2 mol
[B]/[A] (O2 uptake / charged substrate) ([3]; substrate 1.25 μmol): 1.87
Amount of O2 uptake [B] ([3]; substrate 1.25 μmol): 2.34 µmol
[B]/[A] (O2 uptake / charged substrate) ([3]; substrate 2.50 μmol): 1.89
Amount of O2 uptake [B] ([3]; substrate 2.50 μmol): 4.72 µmol
[B]/[A] (O2 uptake / charged substrate) ([3]; substrate 5.00 μmol): 1.91
Amount of O2 uptake [B] ([3]; substrate 5.00 μmol): 9.56 µmol
amount of oxygen consumed by 1 mol of substrate ([3]; summary of Table 3): 1.87 to 1.91 mol
hydrogen peroxide produced from 1 mol of substrate (concluded stoichiometry) [4]: 2 mol
[B']/[A'] (hydrogen peroxide produced / charged substrate) ([4]; substrate 0.045 μmol): 1.80
Amount of hydrogen peroxide [B'] ([4]; substrate 0.045 μmol): 0.081 µmol
[B']/[A'] (hydrogen peroxide produced / charged substrate) ([4]; substrate 0.090 μmol): 1.67
Amount of hydrogen peroxide [B'] ([4]; substrate 0.090 μmol): 0.150 µmol
[B']/[A'] (hydrogen peroxide produced / charged substrate) ([4]; substrate 0.180 μmol): 1.72
Amount of hydrogen peroxide [B'] ([4]; substrate 0.180 μmol): 0.310 µmol
amount of hydrogen peroxide produced from 1 mol of substrate ([4]; summary of Table 4): 1.67 to 1.80 mol

NCCO [ethanolamine hydrochloride]
Substrate specificity (relative activity %) [1]: 0%
Substrate specificity (relative activity %) [2]: 0%

NCC(=O)O [glycine]
Substrate specificity (relative activity %) [1]: 0%
Substrate specificity (relative activity %) [2]: 0%

CNCC(=O)O [sarcosine]
Substrate specificity (relative activity %) [1]: 0%
Substrate specificity (relative activity %) [2]: 0%

[N-]=[N+]=[N-] [sodium azide]
Inhibitor [7]: Inhibitor
enzyme activity inhibited, compared with the control ([7]; 1.7×10^-3 mol/L sodium azide, 37° C., pH 8.0, 5 minutes): 44.4%
